Laboratory results as given in BindingDB's records for patent US20250221979 (Shouyao Holdings (Beijing) Co., 2025).

Target: S-adenosylmethionine synthase isoform type-2 (Homo sapiens, UniProt P31153)
Assay: In Vitro Enzymatic Inhibition Activity Assay
Description: Enzymatic activity assays of compounds of this patent against MAT2A (to detect half inhibitory concentration IC50 values of the compounds) were performed using the phosphate detection kit PiColorLockTM (ab270004, purchased from Abcam). This method utilized the principle that purified human MAT2A enzyme catalyzes the formation of S-adenosylmethionine (SAM) from L-methionine and ATP to release free phosphate, and used the spectrophotometric method to quantify phosphate, so as to determine the enzymatic activity of MAT2A. Compounds were diluted in a 10-fold gradient starting at 1 mM with 100% DMSO (for a total of 8 concentrations) and 2 μL of each concentration was added to 48 μL of reaction buffer (50 mM Tris-HCl PH 7.5, 50 mM KCl, 10 mM MgCl2, 0.01% Brij-35, 0.01% BSA, 1 mM DTT) and mixed well. The final diluted compound was prepared, and 5 μL of MAT2A enzyme (final concentration of 10 nM), 5 μL of ATP (final concentration of 50 μM), and 5 μL of L-methionine (final concentration of 100 μM) were added to each well of a 384-well plate (#3701, purchased from CORNING). After the 384-well plate was placed in the incubator at 23° C. for 6 h, 5 μL of PiColorLock reagent diluted Accelerator (dilution ratio 1:100) was added to each well, and the reaction was stopped by incubating in the incubator at 23° C. for 5 min. 2 μL of Stabiliser was added, the absorbance was read at 630 nm on BMG CLARIOstar, and the IC50 value of the compound was calculated by using GraphPad Prism software.

Chain of S-adenosylmethionine synthase isoform type-2 (P31153 whole entry, canonical isoform): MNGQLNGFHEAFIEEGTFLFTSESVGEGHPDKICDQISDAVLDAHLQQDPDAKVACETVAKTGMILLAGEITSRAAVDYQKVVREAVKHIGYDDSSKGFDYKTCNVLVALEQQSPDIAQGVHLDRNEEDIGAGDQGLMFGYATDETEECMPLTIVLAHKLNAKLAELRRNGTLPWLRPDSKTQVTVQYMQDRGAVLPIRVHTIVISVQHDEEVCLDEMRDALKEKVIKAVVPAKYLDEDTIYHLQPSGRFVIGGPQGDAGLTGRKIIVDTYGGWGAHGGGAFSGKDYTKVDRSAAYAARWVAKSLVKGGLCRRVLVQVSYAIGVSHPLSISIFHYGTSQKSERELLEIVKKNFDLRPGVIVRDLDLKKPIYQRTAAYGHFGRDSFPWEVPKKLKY

| IC50 | SMILES |
| --- | --- |
| 1.19 nM | COC(=O)c1c(N)c2ncc(C3CC3)nc2n(-c2ccc(C(C)O)cc2)c1=O (stereo not drawn) [US20250221979, Example 356] |
| 1.19 nM | COC(=O)c1c(N)c2ccc(OC(F)F)cc2n(-c2ccc(N)cc2)c1=O [US20250221979, Example 320] |
| 1.96 nM | COC(=O)c1c(N)c2ccc(OC(F)F)nc2n(-c2ccc([C@@H](C)O)cc2)c1=O [US20250221979, Example 372] |
